Our source for the IC50 values is patent US6685617B1, “Inhibitors of α4β1 mediated cell adhesion” (Pharmacia & Upjohn Company, priority 1998, dated 2004).

Where a name gives a salt, the structure may show the parent alone.

The target of assay [1] is T1, α4β1 integrin (Jurkat T-cell adhesion to IL-1 stimulated endothelial cell monolayers) (Homo sapiens, UniProt P05556+P13612).
T1 construct: a T-cell line, Jurkat, known to express the α4β1 integrin; host or cells: Jurkat T-cell line
Description: Jurkat-endothelial cell adhesion assay (Jurkat EC). The settings on record: Jurkat cells on IL-1 stimulated human umbilical vein endothelial cells; read-out: JK/EC (Jurkat EC Assay IC50 value range). Format: cell-based. In outline: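 BCECF-AM-labelled Jurkat cells were mixed with compound, generally 100, 20, 5 and 1.25 μM, and added to HUVEC monolayers (passage ≤6) pre-stimulated 4 hr at 37° C with 0.1 ng/ml IL-1. After 5 min on ice and 20 min at 37° C, washed wells were read by fluorescence as % adhesion relative to no compound.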

Assay [2] concerns the target T2, α4β1 integrin (Jurkat cell adhesion to immobilized CS-1 derived peptide CLHPGEILDVPST) (Homo sapiens, UniProt P05556+P13612).
T2 construct: 100 μl of Jurkat cells (2.5×10^6 cells/ml) in DMEM plus BSA; host or cells: Jurkat T-cell line
In words: Jurkat-CS-1 assay. Format: cell-based. The settings on record: Jurkat cells on CS-1 peptide coated plates; read-out: JK/CS-1 (Jurkat CS-1 Assay IC50 value range). Put shortly:
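CS-1 peptide was SPDP-crosslinked onto HSA-coated plates and blocked with BSA. Jurkat cells (2.5×10^6 cells/ml) in DMEM/BSA were mixed with compound, generally at 100, 20, 5 and 1.25 μM, and allowed to adhere for 1 hr at 37° C. Bound cells were fixed, stained with toluidine blue and quantified by OD590.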

T2 sequence (P13612 34-1032): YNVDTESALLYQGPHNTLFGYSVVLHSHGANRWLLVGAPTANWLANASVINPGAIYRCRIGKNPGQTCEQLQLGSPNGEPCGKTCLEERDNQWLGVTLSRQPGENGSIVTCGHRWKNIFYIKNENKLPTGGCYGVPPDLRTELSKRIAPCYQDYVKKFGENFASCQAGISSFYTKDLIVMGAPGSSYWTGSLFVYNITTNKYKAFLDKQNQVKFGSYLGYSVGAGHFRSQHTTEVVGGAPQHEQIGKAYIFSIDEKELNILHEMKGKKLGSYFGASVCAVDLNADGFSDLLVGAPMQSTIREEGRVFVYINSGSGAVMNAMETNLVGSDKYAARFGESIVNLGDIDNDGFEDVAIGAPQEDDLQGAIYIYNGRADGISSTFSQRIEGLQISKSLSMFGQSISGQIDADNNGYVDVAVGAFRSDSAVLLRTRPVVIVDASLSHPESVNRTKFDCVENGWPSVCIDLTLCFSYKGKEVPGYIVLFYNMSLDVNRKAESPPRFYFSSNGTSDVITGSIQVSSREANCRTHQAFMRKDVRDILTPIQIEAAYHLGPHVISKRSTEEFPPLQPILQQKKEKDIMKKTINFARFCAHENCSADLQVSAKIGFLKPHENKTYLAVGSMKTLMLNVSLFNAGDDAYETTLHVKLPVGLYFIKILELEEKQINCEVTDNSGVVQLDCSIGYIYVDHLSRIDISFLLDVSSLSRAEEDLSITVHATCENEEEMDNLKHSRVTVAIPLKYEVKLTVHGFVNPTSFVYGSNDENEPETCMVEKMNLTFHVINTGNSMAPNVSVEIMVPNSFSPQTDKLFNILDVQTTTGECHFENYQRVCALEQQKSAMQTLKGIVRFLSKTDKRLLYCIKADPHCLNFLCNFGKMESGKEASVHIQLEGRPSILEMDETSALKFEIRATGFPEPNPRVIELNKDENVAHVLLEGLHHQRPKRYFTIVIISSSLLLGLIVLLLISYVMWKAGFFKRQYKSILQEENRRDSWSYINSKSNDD
T2 sequence (P05556 21-798): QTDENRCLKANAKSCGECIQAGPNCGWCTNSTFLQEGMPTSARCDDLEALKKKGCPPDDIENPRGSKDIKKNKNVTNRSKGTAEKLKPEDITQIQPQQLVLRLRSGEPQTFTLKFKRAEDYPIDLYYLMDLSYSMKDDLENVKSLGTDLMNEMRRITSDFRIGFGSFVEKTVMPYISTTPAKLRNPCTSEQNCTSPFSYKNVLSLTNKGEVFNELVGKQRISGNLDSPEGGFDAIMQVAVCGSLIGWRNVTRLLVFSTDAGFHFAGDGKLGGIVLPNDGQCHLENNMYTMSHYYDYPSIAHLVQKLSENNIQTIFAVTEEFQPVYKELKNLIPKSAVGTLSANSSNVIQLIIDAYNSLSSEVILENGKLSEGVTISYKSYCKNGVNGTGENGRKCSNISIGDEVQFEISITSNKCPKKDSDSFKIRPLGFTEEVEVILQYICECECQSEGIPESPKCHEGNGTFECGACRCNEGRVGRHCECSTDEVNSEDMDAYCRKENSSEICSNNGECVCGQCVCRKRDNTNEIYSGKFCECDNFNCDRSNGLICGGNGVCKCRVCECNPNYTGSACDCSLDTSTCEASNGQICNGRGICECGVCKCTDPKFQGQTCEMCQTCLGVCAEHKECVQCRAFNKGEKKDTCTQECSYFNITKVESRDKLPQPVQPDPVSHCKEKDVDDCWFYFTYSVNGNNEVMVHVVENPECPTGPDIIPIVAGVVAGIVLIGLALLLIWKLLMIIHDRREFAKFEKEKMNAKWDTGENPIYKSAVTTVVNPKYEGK
T1 sequence (P13612 34-1032): as the sequence (P13612 34-1032) above
T1 sequence (P05556 21-798): as the sequence (P05556 21-798) above

`COC(=O)[C@H](Cc1ccc(NC(=O)c2c(Cl)cccc2Cl)cc1)NC(=O)[C@H]1CSCN1C(=O)OC(C)(C)C` (relative stereo) [Example 1, [S-(R*,R*)]-4-[[[1-[[4-[(2,6-Dichlorobenzoyl)amino]phenyl]methyl]-2-methoxy-2-oxoethyl]amino]carbonyl]-3-thiazolidinecarboxylic Acid 3-(1,1-Dimethylethyl)ester]: the IC50 in assay [1] was at least 1000 nM; in assay [2] it was 50 to 750 nM.

Take `COC(=O)CCCC(=O)N1CSC[C@@H]1C(=O)N[C@@H](Cc1ccc(NC(=O)c2c(Cl)cccc2Cl)cc1)C(=O)O` (relative stereo) [Example 151, [S-(R*,R*)]-4-[[[1-Carboxy-2-[4-[(2,6-dichlorobenzoyl)amino]phenyl]ethyl]amino]carbonyl]-δ-oxo-3-thiazoidinepentanoic Acid Methyl Ester]: the results for the IC50 in assay [1] and in assay [2] were at most 250 nM and at most 50 nM, respectively.

Consider `O=C(O)c1ccc(C(=O)N2CSC[C@H]2C(=O)N[C@@H](Cc2ccc(NC(=O)c3c(Cl)cccc3Cl)cc2)C(=O)O)nc1` [Example 241], for which the results for the IC50 in assay [1] and in assay [2] were at least 1000 nM and 50 to 750 nM, respectively.

“[2R-[1(R*),2α,4β(S*)]]-4-[[[1-Carboxy-2-[4-[(2,6-dichlorobenzoyl)amino]phenyl]-ethyl]-amino]carbonyl]-1-(1-phenylethyl)-2-azetidinecarboxylic Acid Dilithium Salt [Example 135]”: the IC50 was in the range of 250 to 1000 nM in assay [1] and 50 to 750 nM in assay [2].

Take `O=C(O)c1cncc(C(=O)N2CCCC(C(=O)N[C@@H](Cc3ccc(NC(=O)c4c(Cl)cccc4Cl)cc3)C(=O)O)C2)c1` (stereo partly shown) [Example 207]: the IC50 was at least 1000 nM in assay [1] and 50 to 750 nM in assay [2].

Take `CCOC(=O)N1[C@@H](C(=O)N[C@@H](Cc2ccc(OCc3c(Cl)cccc3Cl)cc2)C(=O)O)CSC12CCN(C)CC2` (relative stereo) [Example 155, [S-(R*,R*)]-3-[[[1-Carboxy-2-[4-[(2,6-dichlorophenyl)methoxy]phenyl]ethyl]amino]carbonyl]-8-methyl-1-thia-4,8-diazaspiro[4.5]decane-4-carboxylic Acid 4-Ethyl Ester]: the IC50 was at least 1000 nM in assay [1] and at least 750 nM in assay [2].

For `COC(=O)[C@H](Cc1ccc(NC(=O)c2c(Cl)cccc2Cl)cc1)NC(=O)[C@@H]1CSCCN1C(=O)CCc1nnn[nH]1` [Example 102, 4-[(2,6-Dichlorobenzoyl)amino]-N-[[(3R)-4-[1-oxo-3-(1H-tetrazol-5-yl)propyl]-3-thiomorpholinyl]carbonyl]-L-phenylalanine Methyl Ester], the IC50 is at least 1000 nM in assay [1] and at least 750 nM in assay [2].

Consider `O=C(O)CCCC(=O)N1CSC[C@@H]1C(=O)N[C@@H](Cc1ccc(NC(=O)c2c(Cl)cccc2Cl)cc1)C(=O)O` (relative stereo) [Example 60, [S-(R*,R*)]-4-[[[1-Carboxy-2-[4-[(2,6-dichlorobenzoyl)amino]phenyl]ethyl]amino]carbonyl]-δ-oxo-3-thiazolidinepentanoic Acid], for which the IC50 in assay [1] was at most 250 nM; in assay [2], at most 50 nM.

In the case of `O=C(Nc1ccc(C[C@H](NC(=O)[C@H]2CCCN2C(=O)c2cccnc2)C(=O)O)cc1)c1c(Cl)cccc1Cl` [Example 259], the values for the IC50 in assay [1] and in assay [2] were at most 250 nM and 50 to 750 nM, respectively.

In the case of `O=C(O)/C=C\C(=O)N1CCCC(C(=O)N[C@@H](Cc2ccc(NC(=O)c3c(Cl)cccc3Cl)cc2)C(=O)O)C1` (stereo partly shown) [Example 197], the figures for the IC50 in assay [1] and in assay [2] were at least 1000 nM and at least 750 nM, respectively.

Take `O=C(O)c1ccccc1C(=O)N1CCCC(C(=O)N[C@@H](Cc2ccc(NC(=O)c3c(Cl)cccc3Cl)cc2)C(=O)O)C1` (stereo partly shown) [Example 204]: the IC50 fell in the range of 250 to 1000 nM in assay [1] and 50 to 750 nM in assay [2].

For the compound `CC(C)(C)OC(=O)N1CSC[C@@H]1C(=O)N[C@@H](Cc1ccc(OCc2c(Cl)cccc2Cl)cc1)C(=O)O` (relative stereo) [Example 33, [S-(R*,R*)]-4-[[[1-Carboxy-2-[4-[(2,6-dichlorophenyl)methoxy]phenyl]ethyl]amino]carbonyl]-3-thiazolidinecarboxylic Acid 3-(1,1-Dimethylethyl)ester], the IC50 in assay [1] is at most 250 nM; in assay [2], 50 to 750 nM.

Regarding `CN1C(=O)CC(C(=O)N[C@@H](Cc2ccc(NC(=O)c3c(Cl)cccc3Cl)cc2)C(=O)O)C1c1ccc2c(c1)OCO2` (stereo partly drawn) [Example 171, N-[[2-(1,3-Benzodioxol-5-yl)-1-methyl-5-oxo-3-pyrrolidinyl]carbonyl]-4-[(2,6-dichlorobenzoyl)amino]-L-phenylalanine], the IC50 in assay [1] was at least 1000 nM; in assay [2], 50 to 750 nM.

`O=C(O)/C=C/C(=O)N1CCC[C@@H]1C(=O)N[C@@H](Cc1ccc(NC(=O)c2c(Cl)cccc2Cl)cc1)C(=O)O` [Example 255]: the figures for the IC50 in assay [1] and in assay [2] were at least 1000 nM and 50 to 750 nM, respectively.

Regarding `CCOC(=O)N1CSC[C@@H]1C(=O)N[C@@H](Cc1ccc(NC(=O)c2c(Cl)cccc2Cl)cc1)C(=O)OCc1ccncc1` [Example 154, [S-(R*,R*) 4-[[[1-[4-[(2,6-Dichlorobenzoyl)amino]phenyl]methyl]-2-[(4-pyridinyl)methoxy]-2-oxoethyl]amino]carbonyl]-3-thiazolidinecarboxylic Acid 3-Ethyl Ester], the IC50 in assay [1] is 250 to 1000 nM; in assay [2] it was at most 50 nM.

Turning to `CC(=O)N1CSC[C@@H]1C(=O)N[C@@H](Cc1ccc(OCc2c(Cl)cccc2Cl)cc1)C(=O)O` [Example 66, N-[[(4S)-3-Acetyl-4-thiazolidinyl]carbonyl]-O-[(2,6-dichlorophenyl)methyl]-L-tyrosine], the values for the IC50 in assay [1] and in assay [2] were at most 250 nM and 50 to 750 nM, respectively.

As for `O=C(Nc1ccc(C[C@H](NC(=O)[C@@H]2CSCCN2)C(=O)O)cc1)c1c(Cl)cccc1Cl` [Example 101, 4-[(2,6-Dichlorobenzoyl)amino]-N-[[(3R)-3-thiomorpholinyl]carbonyl]-L-phenylalanine Monohydrochloride], the IC50 in assay [1] was 250 to 1000 nM; in assay [2], 50 to 750 nM.

Regarding `CCOC(=O)N1CSC[C@@H]1C(=O)N[C@@H](Cc1ccc(OCc2c(Cl)cccc2Cl)cc1)C(=O)O` (relative stereo) [Example 35, [S-(R*,R*)]-4-[[[1-Carboxy-2-[4-[(2,6-dichlorophenyl)methoxy]phenyl]ethyl]amino]carbonyl]-3-thiazolidinecarboxylic Acid 3-Ethyl Ester], the results for the IC50 in assay [1] and in assay [2] were 250 to 1000 nM and 50 to 750 nM, respectively.

In the case of `O=C(O)c1cc(C(=O)N2CCCC[C@H]2C(=O)N[C@@H](Cc2ccc(NC(=O)c3c(Cl)cccc3Cl)cc2)C(=O)O)n[nH]1` [Example 189], the values for the IC50 in assay [1] and in assay [2] were at least 1000 nM and 50 to 750 nM, respectively.

As for `CC(C)(C)OC(=O)N1CSC[C@@H]1C(=O)N[C@H](Cc1ccc(NC(=O)c2c(Cl)cccc2Cl)cc1)C(=O)O` (stereo in doubt) [Example 27, [S-(R*,S*)]-4-[[[1-Carboxy-2-[4-[(2,6-dichlorobenzoyl)amino]phenyl]ethyl]amino]carbonyl]-3-thiazolidinecarboxylic Acid 3-(1,1-Dimethylethyl)ester], the IC50 is at least 1000 nM in assay [1] and at least 750 nM in assay [2].

In the case of `CCOC(=O)N1[C@@H](C(=O)N[C@@H](Cc2ccc(NC(=O)c3c(Cl)cccc3Cl)cc2)C(=O)OC)CSC12CCCCC2` (relative stereo) [Example 79, [S-(R*,R*)]-3-[[[1-[[4-[(2,6-Dichlorobenzoyl)amino]phenyl]methyl]-2-methoxy-2-oxoethyl]amino]carbonyl]-1-thia-4-azaspiro[4.5]decanecarboxylic Acid 4-Ethyl Ester], the IC50 in assay [1] was at least 1000 nM; in assay [2], at least 750 nM.

With `COC(=O)[C@H](Cc1ccc(OCc2c(Cl)cccc2Cl)cc1)NC(=O)[C@H]1CSCN1S(C)(=O)=O` [Example 50, O-[(2,6-Dichlorophenyl)methyl]-N-[[(4S)-3-(methylsulfonyl)-4-thiazolidinyl]carbonyl]-L-tyrosine Methyl Ester], the IC50 in assay [1] was at least 1000 nM; in assay [2], 50 to 750 nM.

In the case of `CN(C)c1cccc2c(S(=O)(=O)N3CSC[C@@H]3C(=O)N[C@@H](Cc3ccc(NC(=O)c4c(Cl)cccc4Cl)cc3)C(=O)O)cccc12` [Example 49, 4-[(2,6-Dichlorobenzoyl)amino]-N-[[(4S)-3-[[5-(dimethylamino)-1-naphthalenyl]sulfonyl]-4-thiazolidinyl]carbonyl]-L-phenylalanine], the IC50 in assay [1] is at least 1000 nM; in assay [2], at least 750 nM.

Take `O=C(O)[C@H](Cc1ccc(OCc2c(Cl)cccc2Cl)cc1)NC(=O)[C@H]1CSCN1C(=O)OCCN1CCOCC1` (relative stereo) [Example 37]: the results for the IC50 in assay [1] and in assay [2] were at most 250 nM and at most 50 nM, respectively.

For the compound `CS(=O)(=O)N1CSC[C@@H]1C(=O)N[C@@H](Cc1ccc(OCc2c(Cl)cccc2Cl)cc1)C(=O)O` [Example 51, O-[(2,6-Dichlorophenyl)methyl]-N-[[(4S)-3-(methylsulfonyl)-4-thiazolidinyl]carbonyl]-L-tyrosine], the IC50 in assay [1] lay in the range of 250 to 1000 nM; in assay [2], 50 to 750 nM.

Take `COC(=O)CCC1(CCC(=O)N[C@@H](Cc2ccc(NC(=O)c3c(Cl)cccc3Cl)cc2)C(=O)OC)CCC(=O)N1` (stereo partly drawn) [Example 114, 2-[3-[[(1S)-1-[[4-[(2,6-Dichlorobenzoyl)amino]phenyl]methyl]-2-methoxy-2-oxoethyl]amino]-3-oxopropyl]-5-oxo-2-pyrrolidinepropanoic Acid Methyl Ester]: the IC50 in assay [1] was at least 1000 nM; in assay [2] it was at least 750 nM.
